Molecules are shown by their SMILES.

The target in the experiment is T1, human HSL (Homo sapiens, UniProt Q05469).
T1 construct: overlapping PCR to generate a full length human HSL ORF with a 3′-His6 tag; His6 (C); made in house; host or cells: High 5 insect cells (baculovirus, pFast-BAC)
T1 sequence (Q05469 1-1076): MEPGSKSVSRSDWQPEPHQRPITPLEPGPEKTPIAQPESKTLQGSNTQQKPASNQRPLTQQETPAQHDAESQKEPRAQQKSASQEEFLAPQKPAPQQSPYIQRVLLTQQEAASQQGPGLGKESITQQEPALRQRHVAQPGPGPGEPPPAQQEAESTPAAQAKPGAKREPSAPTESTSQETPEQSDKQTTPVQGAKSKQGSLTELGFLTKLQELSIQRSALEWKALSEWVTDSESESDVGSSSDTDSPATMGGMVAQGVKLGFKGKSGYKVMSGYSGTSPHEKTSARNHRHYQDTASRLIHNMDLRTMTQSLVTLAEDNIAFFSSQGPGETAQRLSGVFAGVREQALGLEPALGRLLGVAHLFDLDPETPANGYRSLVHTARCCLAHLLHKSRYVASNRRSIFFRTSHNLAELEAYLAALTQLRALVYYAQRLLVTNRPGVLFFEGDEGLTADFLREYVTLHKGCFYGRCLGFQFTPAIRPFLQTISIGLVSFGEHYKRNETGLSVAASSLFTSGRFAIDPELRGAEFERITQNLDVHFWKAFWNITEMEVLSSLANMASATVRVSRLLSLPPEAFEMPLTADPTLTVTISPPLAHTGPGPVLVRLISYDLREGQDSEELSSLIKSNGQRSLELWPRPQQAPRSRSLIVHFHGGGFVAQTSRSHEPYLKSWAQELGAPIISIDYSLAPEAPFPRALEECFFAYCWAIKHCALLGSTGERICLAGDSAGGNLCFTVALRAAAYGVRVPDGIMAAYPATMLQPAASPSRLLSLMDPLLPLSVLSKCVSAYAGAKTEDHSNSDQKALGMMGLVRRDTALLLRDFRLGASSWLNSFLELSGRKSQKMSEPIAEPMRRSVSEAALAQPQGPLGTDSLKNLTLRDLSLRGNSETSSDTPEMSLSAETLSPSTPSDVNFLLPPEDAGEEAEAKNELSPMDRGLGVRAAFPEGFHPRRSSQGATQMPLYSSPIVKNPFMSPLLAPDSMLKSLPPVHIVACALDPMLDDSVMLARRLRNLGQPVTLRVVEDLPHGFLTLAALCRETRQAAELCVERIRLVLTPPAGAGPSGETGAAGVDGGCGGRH
Put plainly: Human Hormone-Sensitive Lipase (HSL) enzyme inhibition assay (colorimetric, DMPT substrate). Format: biochemical. As to conditions: human full length HSL-His6, 2,3-dimercapto-1-propanol tributyrate substrate, 37° C. 20 minutes, absorbance at 405 nm; read-out: HSL hum IC50. As for the experimental part:
1) Cloning: cDNA was prepared from commercial human brain polyA+ RNA and used as a template in overlapping PCR to generate a full length human HSL ORF with a 3′-His6 tag. This full length insert was cloned into the pFast-BAC vector and the DNA-sequence of several single clones was verified. DNA from a correct full length clone with the 3′His6 tag was used to transform the E. coli strain DH10BAC. Resulting bacmid DNA was used to generate a titered baculovirus stock for protein generation.
Cells were thawed. […] was done at 3×30 sec., Lubrol PX was added to 0.2% final concentration followed by stirring for 15 min. at 4° C. and centrifugation at 25 k×g, 60 min., 4° C. […] Supernatant was removed, the resin washed in the centrifuge vessel using 5 volumes of Base Buffer containing 0.2% Lubrol PX. Centrifugation was done again, then the supernatant discarded. The resin was poured onto a 0.8 μm membrane in a disposable filter unit (Nalge 450-0080), and washed with 5 volumes of Base Buffer containing 0.2% Lubrol PX. It was then washed with 30 volumes of Base Buffer containing 60 mM imidazole pH 7.5 at 4° C. The protein was eluated with 5 volumes of 25 mM Tris-Cl, 300 mM NaCl, 200 mM imidazole, 10 mM 2-mercaptoethanol, pH 7.5 at 4° C. by tumbling resin with buffer end-over-end, 30 min., 4° C. The resin was captured on a 0.2 μm membrane disposable filter unit (Millipore SCGP U02 RE) and the eluate collected in the reservoir. The eluate was concentrated using a 30 k MWCO centrifugal filter device (Sartorius Vivascience Vivacell 100, VC1022), to 20 ml. It was then dialyzed overnight at 4° C., two times against 2 L of 10% glycerol, 25 mM Tris-Cl, 300 mM NaCl, 0.2 mM EDTA, 0.2 mM DTT, pH 7.5 at 4° C. The protein was filtered using a 0.22 μm disposable filter unit (Millipore SCGP00525). The protein concentration was calculated from absorbance at 280 nm, using 280=0.67 cm-1 mg-1. […] The protein was stored at −80° C.
Human Hormone-Sensitive Lipase (HSL) Enzyme Inhibition Assay:
HSL enzyme activity was measured by a colorimetric assay using 2,3-dimercapto-1-propanol tributyrate (Aldrich, St. Louis, Mo.) as a substrate. Typically, 1.5 mM 2,3-dimercapto-1-propanol tributyrate (DMPT) in 100 mM MOPS, pH 7.2, 0.2 mg/ml fatty acid-free BSA was prepared by sonication at 4° C. to homogenous suspension. Test compounds (2 mM stock in DMSO) were diluted 3 fold in series in DMSO. Compound solutions were diluted 24 fold in 1.5 mM DMPT containing solution and 18 ul per well was added to 384-well microplates (Corning Costar). Twelve microliters per well of human HSL (15 ug/ml) was added and the reaction mixture was incubated at 37° C. for 20 minutes. Six microliters of 12 mM dithio-bis-(2-nitrobenzoic acid) (DTNB) in DMSO plus 1.2% SDS and 0.6% Triton X-100 were added and the mixture was incubated at room temperature for 15 minutes. Product production was monitored by reading absorbance at 405 nm on an Envision Reader (PerkinElmer Life and Analytical Sciences, Shelton, Conn.).
As for `O=C1N(c2ccc(CC(F)(F)F)cc2)CCC12CCN(CC(O)c1ccc(Cl)cc1Cl)CC2` (stereo not shown) [Example 46, 8-[2-(2,4-Dichloro-phenyl)-2-hydroxy-ethyl]-2-[4-(2,2,2-trifluoro-ethyl)-phenyl]-2,8-diaza-spiro[4.5]decan-1-one], the half-maximal inhibitory concentration (IC50) (in general, the concentration at which inhibition is half-maximal) turned out to be 19 nM.
Under `O=C1N(c2ccc(OCC(F)(F)F)cc2)CCC12CCN(CC(O)c1c(F)cccc1Cl)CC2` (stereo not shown) [Example 47, 8-[2-(2-Chloro-6-fluoro-phenyl)-2-hydroxy-ethyl]-2-[4-(2,2,2-trifluoro-ethoxy)-phenyl]-2,8-diaza-spiro[4.5]decan-1-one] stands 35 nM; under `C[C@@H](Oc1ccc(N2CCC3(CCN(CC(O)c4c(F)cccc4Cl)CC3)C2=O)cc1)C(F)(F)F` (stereo partly drawn) [Example 48, 8-[2-(2-Chloro-6-fluoro-phenyl)-2-hydroxy-ethyl]-2-[4-((R)-2,2,2-trifluoro-1-methyl-ethoxy)-phenyl]-2,8-diaza-spiro[4.5]decan-1-one], 23 nM; under `C[C@@H](Oc1ccc(N2CCC3(CCN(CC(O)c4c(F)cccc4Cl)CC3)C2=O)cn1)C(F)(F)F` (stereo partly drawn) [Example 49, 8-[2-(2-Chloro-6-fluoro-phenyl)-2-hydroxy-ethyl]-2-[6-((R)-2,2,2-trifluoro-1-methyl-ethoxy)-pyridin-3-yl]-2,8-diaza-spiro[4.5]decan-1-one], 42 nM.
Then `O=C1N(c2ccc(CC(F)(F)F)cc2)CCC12CCN(CC(O)c1c(F)cccc1Cl)CC2` (stereo not shown) [Example 50, 8-[2-(2-Chloro-6-fluoro-phenyl)-2-hydroxy-ethyl]-2-[4-(2,2,2-trifluoro-ethyl)-phenyl]-2,8-diaza-spiro[4.5]decan-1-one], with 18 nM; and `C[C@@H](Oc1ccc(N2CCC3(CCN(CC(O)c4ccc(Cl)cc4Cl)CC3)C2=O)cc1)C(F)(F)F` (stereo partly drawn) [Example 51, 8-[2-(2,4-Dichloro-phenyl)-2-hydroxy-ethyl]-2-[4-((R)-2,2,2-trifluoro-1-methyl-ethoxy)-phenyl]-2,8-diaza-spiro[4.5]decan-1-one], with 22 nM; and `C[C@H](Oc1ccc(N2CCC3(CCN(CC(O)c4ccc(Cl)cc4Cl)CC3)C2=O)cc1)C(F)(F)F` (stereo partly drawn) [Example 52, 8-[2-(2,4-Dichloro-phenyl)-2-hydroxy-ethyl]-2-[4-((S)-2,2,2-trifluoro-1-methyl-ethoxy)-phenyl]-2,8-diaza-spiro[4.5]decan-1-one], with 20 nM.
Consider `C[C@H](Oc1ccc(N2CCC3(CCN(CC(O)c4ccc(Cl)cc4Cl)CC3)C2=O)cn1)C(F)(F)F` (stereo partly drawn) [Example 53, 8-[2-(2,4-Dichloro-phenyl)-2-hydroxy-ethyl]-2-[6-((S)-2,2,2-trifluoro-1-methyl-ethoxy)-pyridin-3-yl]-2,8-diaza-spiro[4.5]decan-1-one], for which the IC50 turned out to be 43 nM.
Then `C[C@H](Oc1ccc(N2CCC3(CCN(CC(O)c4c(F)cccc4Cl)CC3)C2=O)cc1)C(F)(F)F` (stereo partly drawn) [Example 54, 8-[2-(2-Chloro-6-fluoro-phenyl)-2-hydroxy-ethyl]-2-[4-((S)-2,2,2-trifluoro-1-methyl-ethoxy)-phenyl]-2,8-diaza-spiro[4.5]decan-1-one], with 29 nM.
Under `C[C@H](Oc1ccc(N2CCC3(CCN(CC(O)c4c(F)cccc4Cl)CC3)C2=O)cn1)C(F)(F)F` (stereo partly drawn) [Example 55, 8-[2-(2-Chloro-6-fluoro-phenyl)-2-hydroxy-ethyl]-2-[6-((S)-2,2,2-trifluoro-1-methyl-ethoxy)-pyridin-3-yl]-2,8-diaza-spiro[4.5]decan-1-one] stands 38 nM.

Values taken from patent publication US8389539B2, “Azacyclic derivatives” (Hoffman-La Roche Inc., priority 2009, dated 2013).
